Measurements: US4912199A, “Oligopeptide anticancer and antiviral agents” (The Governors of the University of Alberta, priority 1987, dated 1990)
In brackets after ≈: the same amount, converted by molar mass. Where two headings read alike, the source gives them in different places.

Key:
Herpes simplex-1 = test: Antiviral test, minimum inhibitory concentration in primary rabbit kidney cell cultures; assay type: cell-based; settings: 50% kill of the viruses in primary rabbit kidney cell cultures
Herpes-2 = test: as above; assay type: cell-based; settings: 50% kill of the viruses in primary rabbit kidney cell cultures
Vaccinia = assay type: cell-based, vaccinia virus; settings: for minimum inhibitory concentration against vaccinia virus: text of Examples 3(A) and 3(B), hydrochloride
[1] = system: primary rabbit kidney cell cultures; test: Minimal cytotoxic concentration in the antiviral test
Description: The antiviral properties of the compounds listed in Table 1 were tested to determine the minimum inhibitory concentration to achieve a 50% kill of the viruses in primary rabbit kidney cell cultures.

L1210 murine Leukemia = test: Anticancer properties, 50% cell kill (ID50); assay type: cell-based
[2] = system: FM3A murine mammary tumor; test: Anticancer properties, 50% cell kill (ID50); assay type: cell-based
RAJI human B lymphoblast = test: Anticancer properties, 50% cell kill (ID50); assay type: cell-based
Source text: RAJI human B lymphoblast
FIG. 1 relates to such acitivity for the cell line MOLT/4F, human T lymphoblast. FIG. 2 related to the tumor cell lines of Raji, human B lymphoblast; all values being expressed in ID50 values in arbitrary units. […] The general formula for the compounds of this invention as tested in FIGS. 1 and 2 are of formula I, wherein A is represented by: [drawing 14] m is 1; n is 1 and Het is pyrrole, R is represented by the formula COk --(CH2)l --CO where l is equal to 0, 1, 2, 3, 4, 5, 6, 7 or 8 and k is equal to 0 or 1.

[3] = system: MOLT/4F human T lymphoblast; test: Anticancer properties, 50% cell kill (ID50); assay type: cell-based
P388 murine leukemia = test: Antileukemic properties, ID50 vs P388 leukemia; assay type: cell-based; settings: 25,000 cells per well; 72 hours incubation at 37° C.
Description: The compounds of the following Table 3 were prepared in accordance with processes of this invention.

[4] = 50% kill of the viruses in primary rabbit kidney cell cultures

Compound | Minimum Inhibitory Conc. Herpes simplex-1 (Herpes simplex-1) [µg/mL] | Minimum Inhibitory Conc. Herpes-2 (Herpes-2) [µg/mL] | Minimum Inhibitory Conc. Vaccinia (Vaccinia; [4]) [µg/mL] | Minimal Cytotoxic Conc. [1] [μg/m] | Minimum Inhibitory Conc. L1210 (ID50) (L1210 murine Leukemia) [µg/mL] | Minimum Inhibitory Conc. FM3A (ID50) [2] [µg/mL] | Minimum Inhibitory Conc. RAJI (ID50) (RAJI human B lymphoblast) [µg/mL] | ID50 vs P388 leukemia (P388 murine leukemia) [µg/mL] | further results
Cl.Cl.Cn1cc(NC(=O)c2cc(NC(=O)c3cc(NC(=O)CCC(=O)Nc4cc(C(=O)Nc5cc(C(=O)Nc6cc(C(=O)NCCC(=N)N)n(C)c6)n(C)c5)n(C)c4)cn3C)cn2C)cc1C(=O)NCCC(=N)N [m=1 n=2 R = CO(CH2)2 CO] | 4 | 4 | 4 | ≥ 40 | > 100 | 4.29 ± 1.12 | 4.14 ± 8.4 | – | Minimum Inhibitory Conc. MOLT/4F (ID50) [3]: 100 µg/mL
Cl.Cn1cc(NC(=O)c2cc(NC(=O)C[N+](C)(C)C)cn2C)cc1C(=O)NCCC(=N)N.[Cl-] [Example 3(A), 1-Methyl-4-(1-methyl-4-trimethylammonium-acetamidopyrrole-2-carboxamido)pyrrole-2-carboxamidopropionamidine chloride hydrochloride] | – | – | – | – | – | – | – | – | minimum inhibitory concentration against vaccinia virus (Vaccinia): 20 µg/mL
Cl.Cl.Cn1cc(NC(=O)c2cc(NC(=O)Nc3cc(C(=O)Nc4cc(C(=O)NCCC(=N)N)n(C)c4)n(C)c3)cn2C)cc1C(=O)NCCC(=N)N [m=1 n=1 l=0 k=0] | – | – | – | – | – | – | – | 8.0 | –
Cl.Cl.Cn1cc(NC(=O)c2cc(NC(=O)CCCCCC(=O)Nc3cc(C(=O)Nc4cc(C(=O)NCCC(=N)N)n(C)c4)n(C)c3)cn2C)cc1C(=O)NCCC(=N)N [m=1 n=1 l=5 k=1] | – | – | – | – | – | – | – | 4.4 | –
Cl.Cl.Cn1cc(NC(=O)c2cc(NC(=O)CC(=O)Nc3cc(C(=O)Nc4cc(C(=O)NCCC(=N)N)n(C)c4)n(C)c3)cn2C)cc1C(=O)NCCC(=N)N [m=1 n=1 R = COCH2CO] | – | – | – | – | 28.5 ± 9.7 | 5.87 ± 2.23 | 3.39 ± 0.69 | 0.91 | Minimum Inhibitory Conc. MOLT/4F (ID50) [3]: 2.85 ± 0.6 µg/mL
Cn1cc(NC(=O)c2cc(NC(=O)c3cc(NC=O)cn3C)cn2C)cc1C(=O)NCCC(=N)N [Distamycin, distamycin, reference compound] | 70 | 70 | – | – | 27.1 ± 4.7 | 30.6 ± 2.4 | 23.7 ± 3.69 | 20 (≈ 41.5 µM) | Minimum Inhibitory Conc. Vaccinia (Vaccinia): 0.2 µg/mL; Minimal Cytotoxic Conc. ([1]; primary rabbit kidney cell cultures): 200 μg/m
Cl.Cl.Cn1cc(NC(=O)c2cc(NC(=O)/C=C/C(=O)Nc3cc(C(=O)Nc4cc(C(=O)NCCC(=N)N)n(C)c4)n(C)c3)cn2C)cc1C(=O)NCCC(=N)N [m=1 n=1 R = COCH CHCO (trans)] | – | 10 | 2 | ≥ 40 | – | – | – | – | –
Cl.Cn1cc(NC(=O)c2cc(NC(=O)C[N+](C)(C)C)cn2C)cc1C(=O)NCCC(=N)N.[Cl-] [3(B), 1-Methyl-4-(1-methyl-4-trimethylammonium-acetamidopyrrole-2-carboxamido)pyrrole-2-carboxamidopropionamidine chloride hydrochloride] | – | – | – | – | – | – | – | – | minimum inhibitory concentration against vaccinia virus (Vaccinia): 300 µg/mL
Cl.Cl.Cn1cc(NC(=O)c2cc(NC(=O)CCCCCCC(=O)Nc3cc(C(=O)Nc4cc(C(=O)NCCC(=N)N)n(C)c4)n(C)c3)cn2C)cc1C(=O)NCCC(=N)N [m=1 n=1 R = CO(CH2)6 CO] | 10 | 10 | 0.2 | ≥ 10 | – | – | – | 0.70 | –
Cl.Cl.Cn1cc(NC(=O)c2cc(NC(=O)CCCCCCCC(=O)Nc3cc(C(=O)Nc4cc(C(=O)NCCC(=N)N)n(C)c4)n(C)c3)cn2C)cc1C(=O)NCCC(=N)N [m=1 n=1 R = CO(CH2)7 CO] | 40 | 40 | 0.2 | ≥ 100 | – | – | – | 0.75 | –
Cl.Cl.Cn1cc(NC(=O)c2cc(NC(=O)CCCC(=O)Nc3cc(C(=O)Nc4cc(C(=O)NCCC(=N)N)n(C)c4)n(C)c3)cn2C)cc1C(=O)NCCC(=N)N [m=1 n=1 l=3 k=1] | – | – | – | – | – | – | – | 6.4 | –
Cl.Cl.Cn1cc(NC(=O)c2cc(NC(=O)CCCCCCCCC(=O)Nc3cc(C(=O)Nc4cc(C(=O)NCCC(=N)N)n(C)c4)n(C)c3)cn2C)cc1C(=O)NCCC(=N)N [m=1 n=1 R = CO[CH2]8CO] | – | – | – | – | 4.21 ± 1.52 | 22.1 ± 11.1 | 3.34 ± 0.44 | 0.98 | Minimum Inhibitory Conc. MOLT/4F (ID50) [3]: 2.97 ± 0.4 µg/mL
Cl.Cl.Cn1cc(NC(=O)c2cc(NC(=O)CCCCC(=O)Nc3cc(C(=O)Nc4cc(C(=O)NCCC(=N)N)n(C)c4)n(C)c3)cn2C)cc1C(=O)NCCC(=N)N [m=1 n=1 l=4 k=1] | – | – | – | – | – | – | – | 1.05 | –
